Target: T1, human DGAT1 enzyme (Homo sapiens, UniProt O75907)
T1 sequence (O75907 1-488): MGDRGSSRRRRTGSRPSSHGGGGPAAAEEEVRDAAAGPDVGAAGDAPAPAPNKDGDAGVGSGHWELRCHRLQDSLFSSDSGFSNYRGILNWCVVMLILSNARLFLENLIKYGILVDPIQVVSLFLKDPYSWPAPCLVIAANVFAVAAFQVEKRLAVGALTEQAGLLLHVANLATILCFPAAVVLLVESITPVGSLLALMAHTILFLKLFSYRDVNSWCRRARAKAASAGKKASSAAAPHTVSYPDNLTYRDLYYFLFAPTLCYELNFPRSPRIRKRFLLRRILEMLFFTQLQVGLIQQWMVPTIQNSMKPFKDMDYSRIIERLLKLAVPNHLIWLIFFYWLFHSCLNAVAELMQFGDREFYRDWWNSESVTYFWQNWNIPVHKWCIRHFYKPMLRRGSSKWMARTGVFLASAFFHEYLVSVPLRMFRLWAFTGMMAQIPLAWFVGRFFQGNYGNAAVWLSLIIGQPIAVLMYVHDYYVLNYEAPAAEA
Assay: in vitro DGAT1 inhibition assay (microsomes, [14C]-palmitoyl-CoA, SPA beads)
Method: The in vitro assay to identify DGAT1 inhibitors uses human DGAT1 enzyme expressed in Sf9 insect cells prepared as microsomes. The reaction is initiated by the addition of the combined substrates 1,2-dioleoyl-sn-glycerol and [^14C]-palmitoyl-Co A and incubated with test compounds and microsomal membranes for 2 hours at room temperature. The assay is stopped by adding 0.5 mg wheat germ agglutinin beads in assay buffer with 1% Brij-35 and 1% 3-cholamidopropyldimethyl-ammonio-1-propane sulfonate. Plates are sealed with TopSeal and incubated for 18 hours to allow the radioactive triglyceride product to come into proximity with the bead. Plates are read on a TopCount instrument.
Percent inhibition was calculated as the percent of (test compound inhibition minus non-specific binding) relative to (total binding minus non-specific binding). IC50 values were determined by curve fitting the data to a Sigmoidal dose-response in GraphPad Prism utilizing the following equation: Y=A+(B−A)/(1+10^((Log IC50−X))), where A and B are the bottom and top of the curve (highest and lowest inhibition), respectively, and X is the logarithm of concentration.

CC1CCCN(c2nc(C(F)(F)F)c(C(=O)Nc3ccc(N4CCN(c5ccccc5F)CC4)nc3)o2)C1 (stereo not shown) [Compound 164, N-(6-(4-(2-fluorophenyl)piperazin-1-yl)pyridin-3-yl)-2-(3-methylpiperidin-1-yl)-4-(trifluoromethyl)oxazole-5-carboxamide]
IC50: 11 to 100 nM

CC1CCCN(c2nc(C(F)(F)F)c(C(=O)Nc3ccc(N4CCc5c(cccc5C(=O)O)C4)nc3)o2)C1 (stereo not shown) [Compound 168, 2-(5-(2-(3-methylpiperidin-1-yl)-4-(trifluoromethyl)oxazole-5-carboxamido)pyridin-2-yl)-1,2,3,4-tetrahydroisoquinoline-5-carboxylic acid]
IC50: 101 to 500 nM

CC1CCCN(c2nc(C(F)(F)F)c(C(=O)Nc3ccc(N4CCN(c5ccccn5)CC4)nc3)o2)C1 (stereo not shown) [Compound 169, 2-(3-methylpiperidin-1-yl)-N-(6-(4-(pyridin-2-yl)piperazin-1-yl)pyridin-3-yl)-4-(trifluoromethyl)oxazole-5-carboxamide]
IC50: 11 to 100 nM

CC1CCCN(c2nc(C(F)(F)F)c(C(=O)Nc3ccc(N4CCN(c5ccccc5O)CC4)nc3)o2)C1 (stereo not shown) [Compound 171, N-(6-(4-(2-hydroxyphenyl)piperazin-1-yl)pyridin-3-yl)-2-(3-methylpiperidin-1-yl)-4-(trifluoromethyl)oxazole-5-carboxamide]
IC50: 11 to 100 nM

CC1CCCN(c2nc(C(F)(F)F)c(C(=O)Nc3ccc(N4CCc5c(cccc5Nc5ccccc5F)C4)nc3)o2)C1 (stereo not shown) [Compound 174, N-(6-(5-(2-fluorophenylamino)-3,4-dihydroisoquinolin-2(1H)-yl)pyridin-3-yl)-2-(3-methylpiperidin-1-yl)-4-(trifluoromethyl)oxazole-5-carboxamide]
IC50: 101 to 500 nM

O=C(Nc1ccc(N2CCN(C(=S)Nc3ccccc3F)CC2)nc1)c1oc(N2CCC(c3ccccc3)CC2)nc1C(F)(F)F [Compound 181, N-(6-(4-(2-fluorophenylcarbamothioyl)piperazin-1-yl)pyridin-3-yl)-2-(4-phenylpiperidin-1-yl)-4-(trifluoromethyl)oxazole-5-carboxamide]
IC50: 11 to 100 nM

N#C/N=C(/N1CCCC1)N1CCN(c2ccc(NC(=O)c3oc(N4CCC(c5ccccc5)CC4)nc3C(F)(F)F)cn2)CC1 [Compound 182, (Z)—N-(6-(4-((cyanoimino)(pyrrolidin-1-yl)methyl)piperazin-1-yl)pyridin-3-yl)-2-(4-phenylpiperidin-1-yl)-4-(trifluoromethyl)oxazole-5-carboxamide]
IC50: 101 to 500 nM

CC1CCCN(c2nc(C(F)(F)F)c(C(=O)Nc3ccc(N4CCCN(C(=O)[C@H]5CC[C@@H](C(=O)O)CC5)CC4)nc3)o2)C1 (stereo partly shown) [Compound 185, (1s,4s)-4-(4-(5-(2-(3-Methylpiperidin-1-yl)-4-(trifluoromethyl)oxazole-5-carboxamido)pyridin-2-yl)-1,4-diazepane-1-carbonyl)cyclohexanecarboxylic acid]
IC50: 101 to 500 nM

CC1CCCN(c2nc(C(F)(F)F)c(C(=O)Nc3ccc(N4CCCN(C(=O)c5cccc(C(=O)O)c5)CC4)nc3)o2)C1 (stereo not shown) [Compound 190, 3-(4-(5-(2-(3-methylpiperidin-1-yl)-4-(trifluoromethyl)oxazole-5-carboxamido)pyridin-2-yl)-1,4-diazepane-1-carbonyl)benzoic acid]
IC50: 101 to 500 nM

CC1CCCN(c2nc(C(F)(F)F)c(C(=O)Nc3ccc(N4CCCN(C(=O)C(O)C(F)(F)F)CC4)nc3)o2)C1 (stereo not shown) [Compound 191, 2-(3-methylpiperidin-1-yl)-N-(6-(4-(3,3,3-trifluoro-2-hydroxypropanoyl)-1,4-diazepan-1-yl)pyridin-3-yl)-4-(trifluoromethyl)oxazole-5-carboxamide]
IC50: 101 to 500 nM

CC1CCCN(c2nc(C(F)(F)F)c(C(=O)Nc3ccc(N4CCN(C(=O)C(O)C(F)(F)F)CC4)nc3)o2)C1 (stereo not shown) [Compound 194, 2-(3-methylpiperidin-1-yl)-N-(6-(4-(3,3,3-trifluoro-2-hydroxypropanoyl)piperazin-1-yl)pyridin-3-yl)-4-(trifluoromethyl)oxazole-5-carboxamide]
IC50: 11 to 100 nM

CC1CCCN(c2nc(C(F)(F)F)c(C(=O)Nc3ccc(N4CCN(C(=O)[C@H](O)C5CCCCC5)CC4)nc3)o2)C1 (stereo partly drawn) [Compound 196, N-(6-(4-((R)-2-cyclohexyl-2-hydroxyacetyl)piperazin-1-yl)pyridin-3-yl)-2-(3-methylpiperidin-1-yl)-4-(trifluoromethyl)oxazole-5-carboxamide]
IC50: 11 to 100 nM

CC1CCCN(c2nc(C(F)(F)F)c(C(=O)Nc3ccc(N4CCN(C(=O)[C@H](O)c5ccccc5)CC4)nc3)o2)C1 (stereo partly drawn) [Compound 198, N-(6-(4-((R)-2-hydroxy-2-phenylacetyl)piperazin-1-yl)pyridin-3-yl)-2-(3-methylpiperidin-1-yl)-4-(trifluoromethyl)oxazole-5-carboxamide]
IC50: 11 to 100 nM

O=C(Nc1ccc(N2CCN(C(=O)[C@H](O)c3ccccc3)CC2)nc1)c1oc(N2CCC(c3ccccc3)CC2)nc1C(F)(F)F [Compound 200, (R)—N-(6-(4-(2-hydroxy-2-phenylacetyl)piperazin-1-yl)pyridin-3-yl)-2-(4-phenylpiperidin-1-yl)-4-(trifluoromethyl)oxazole-5-carboxamide]
IC50: 11 to 100 nM

O=C(Nc1ccc(N2CCCN(C(=O)C(O)c3cc(F)cc(F)c3)CC2)nc1)c1oc(N2CCC(c3ccccc3)CC2)nc1C(F)(F)F (stereo not shown) [Compound 202, N-(6-(4-(2-(3,5-difluorophenyl)-2-hydroxyacetyl)-1,4-diazepan-1-yl)pyridin-3-yl)-2-(4-phenylpiperidin-1-yl)-4-(trifluoromethyl)oxazole-5-carboxamide]
IC50: 11 to 100 nM

O=C(Nc1ccc(N2CCN(C(=O)[C@H](O)c3ccccc3)CC2)nc1)c1oc(N2CCC(c3cccc(Cl)c3)C2)nc1C(F)(F)F (stereo partly drawn) [Compound 207, 2-(3-(3-chlorophenyl)pyrrolidin-1-yl)-N-(6-(4-((R)-2-hydroxy-2-phenylacetyl)piperazin-1-yl)pyridin-3-yl)-4-(trifluoromethyl)oxazole-5-carboxamide]
IC50: 11 to 100 nM

O=C(Nc1ccc(N2CCN(C(=O)C(O)C(F)(F)F)CC2)nc1)c1oc(N2CCC(c3cccc(Cl)c3)C2)nc1C(F)(F)F (stereo not shown) [Compound 212, 2-(3-(3-chlorophenyl)pyrrolidin-1-yl)-N-(6-(4-(3,3,3-trifluoro-2-hydroxypropanoyl)piperazin-1-yl)pyridin-3-yl)-4-(trifluoromethyl)oxazole-5-carboxamide]
IC50: 11 to 100 nM

O=C(Nc1ccc(N2CCN(C(=O)[C@H](O)C3CCCCC3)CC2)nc1)c1oc(N2CCC(c3cccc(Cl)c3)C2)nc1C(F)(F)F (stereo partly drawn) [Compound 213, N-(6-(4-((R)-2-cyclohexyl-2-hydroxyacetyl)piperazin-1-yl)pyridin-3-yl)-2-(3-(3-chlorophenyl)pyrrolidin-1-yl)-4-(trifluoromethyl)oxazole-5-carboxamide]
IC50: 11 to 100 nM

Cc1cccc(Cl)c1NC(=O)N1CCCN(c2ccc(NC(=O)c3oc(N4CCCC(C)C4)nc3C(F)(F)F)cn2)CC1 (stereo not shown) [Compound 215, N-(2-chloro-6-methylphenyl)hexahydro-4-[5-[[[2-(3-methyl-1-piperidinyl)-4-(trifluoromethyl)-5-oxazolyl]carbonyl]amino]-2-pyridinyl]-1H-1,4-diazepine-1-carboxamide]
IC50: 11 to 100 nM

From patent US8716312B2, “Inhibitors of diacylglycerol acyltransferase” (Merck Sharp & Dohme Corporation, priority 2008, dated 2014)
